The record followed here is patent publication US6949536B2, “Sulfonylbenzene compounds as anti-inflammatory/analgesic agents” (Pfizer, Inc., priority 1998, dated 2005).

Molecules are shown by their SMILES. Counter-ions that a name gives are not always drawn.

Compound `CS(=O)(=O)c1ccc(-n2cc(C(F)(F)F)nc2-c2ccc(-c3cccs3)cc2)cc1` [Example 52, 1-[4-(Methylsulfonyl)phenyl]-2-[4-(2-thienyl)phenyl]-4-(trifluoromethyl)-1H-imidazole] registered a melting point of 95 to 97 °C.
Under `CCOC(=O)c1cc(-c2ccc(-c3ccco3)cc2)n(-c2ccc(S(C)(=O)=O)c(F)c2)n1` [Example 126, Ethyl 1-[3-Fluoro-4-(methylsulfonyl)phenyl]-5-[4-(2-furyl)phenyl]-1H-pyrazole-3-carboxylate] stands 172 °C; under `CS(=O)(=O)c1ccc(-n2nc(C(F)(F)F)cc2-c2ccc(-c3cncs3)cc2)cc1` [Example 24, 1-[4-(Methylsulfonyl)phenyl]-5-[4-(5-thiazolyl)phenyl]-3-trifluoromethyl-1H-pyrazole], 169 to 170 °C.
The same measure for `COc1cc(-c2cc(C(F)(F)F)nn2-c2ccc(S(C)(=O)=O)cc2)ccc1-c1ccco1` (as salt: hydrochloride) [Example 81, 1-[4-(Methylsulfonyl)phenyl]-5-[4-(2-furyl)-3-methoxyphenyl]-3-(trifluoromethyl)-1H-pyrazole]: 138 to 140 °C; for `CS(=O)(=O)c1ccc(-n2nc(C(F)(F)F)cc2-c2ccc(-c3nccs3)cc2)cc1` [Example 22, 1-[4-(Methylsulfonyl)phenyl]-5-[4-(2-thiazolyl)phenyl]-3-trifluoromethyl-1H-pyrazole]: 206 to 207 °C; for `Cc1ccc(-c2ccc(S(C)(=O)=O)c(F)c2)n1-c1ccc(-c2ccoc2)cc1` [Example 36, 5-[3-Fluoro-4-(methylsulfonyl)phenyl]-1-[4-(3-furyl)phenyl]-2-methyl-1H-pyrrole]: 147 to 150 °C.
With `CS(=O)(=O)c1ccc(-n2nc(C(F)(F)F)cc2-c2ccc(-c3ncco3)cc2)cc1` (as salt: hydrochloride) [Example 97, 2-{4-[1-[4-(Methylsulfonyl)phenyl]-3-(trifluoromethyl)-1H-pyrazol-5-yl]phenyl}-1,3-oxazole], the melting point is 190 to 192 °C.
Under `CC1(C)OC(=O)C(c2ccc(-c3cscn3)cc2)=C1c1ccc(S(C)(=O)=O)cc1` [Example 166, 5,5-Dimethyl-4-[4-(methylsulfonyl)phenyl]-3-[4-(1,3-thiazol-4-yl)phenyl]-2(5H)-furanone] stands 215.8 °C; under `Cc1nc(-c2ccc(-c3cscn3)cc2)c(-c2ccc(S(C)(=O)=O)c(F)c2)o1` [Example 169, 5-[3-Fluoro-4-(methylsulfonyl)phenyl]-2-methyl-4-[4-(1,3-thiazol-4-yl)phenyl]-1,3-oxazole], 196 to 197 °C; under `Cc1cc(-c2ccnn2-c2ccc(S(N)(=O)=O)c(F)c2C(F)F)ccc1-c1cscn1` (as salt: hydrochloride) [Example 195, 3-(Difluoromethyl)-2-fluoro-4-[5-[3-methyl-4-(1,3-thiazol-4-yl)phenyl]-1H-pyrazol-1-yl]benzenesulfonamide], 204.3 °C.
Under `CCOc1cc(-n2nc(C(=O)O)cc2-c2ccc(-c3ccco3)cc2)ccc1S(C)(=O)=O` [Example 127, 1-[3-Ethoxy-4-(methylsulfonyl)phenyl]-5-[4-(2-furyl)phenyl]-1H-pyrazole-3-carboxylic Acid] stands 256 to 257 °C; under `NS(=O)(=O)c1ccc(-n2nc(C(F)(F)F)cc2-c2ccc(-c3ccco3)c(Cl)c2)cc1F` [Example 138, 4-[5-[3-Chloro-4-(2-furyl)phenyl]-3-(trifluoromethyl)-1H-pyrazol-1-yl]-2-fluorobenzenesulfonamide], 171.8 °C.
As for `NS(=O)(=O)c1ccc(-n2nc(C(F)(F)F)cc2-c2ccc(-c3cocn3)cc2)cc1` (as salt: hydrochloride) [Example 118, 4-[5-[4-(1,3-Oxazol-4-yl)phenyl]-3-(trifluoromethyl)-1H-pyrazol-1-yl]benzenesulfonamide], the melting point fell in the range of 170 to 172 °C.
Under `CS(=O)(=O)c1ccc(-n2nc(C(F)(F)F)cc2-c2ccc(-c3cscn3)cc2)cc1Cl` [Example 158, 1-[3-Chloro-4-(methylsulfonyl)phenyl]-5-[4-(4-thiazolyl)phenyl]-3-trifluoromethyl-1H-pyrazole] stands 103 to 107 °C.
Consider `Cc1cc(-n2c(C)ccc2-c2ccc(S(C)(=O)=O)cc2)ccc1-c1ccco1` [Example 40, 1-[4-(2-Furyl)-3-methylphenyl]-2-methyl-5-[4-(methylsulfonyl)phenyl]-1H-pyrrole], for which the melting point was in the range of 160 to 162 °C.
As for `Cc1cc(-c2ccc(S(C)(=O)=O)cc2)n(-c2ccc(-c3ccoc3)cc2)c1` [Example 55, 1-[4-(3-Furyl)phenyl]-4-methyl-2-[4-(methylsulfonyl)phenyl]-1H-pyrrole], the melting point lay in the range of 154 to 156 °C.
In the case of `Cc1cc(-c2noc(C)c2-c2ccc(S(N)(=O)=O)c(F)c2)ccc1-c1cscn1` [Example 188, 2-Fluoro-4-[5-methyl-3-[3-methyl-4-(1,3-thiazol-4-yl)phenyl]-4-isoxazolyl]benzenesulfonamide], the melting point was in the range of 114 to 116 °C.
In turn, `CS(=O)(=O)c1ccc(-n2nc(C(F)(F)F)cc2-c2ccc(-c3cccs3)cc2)cc1F` [Example 86, 1-[3-Fluoro-4-(methylsulfonyl)phenyl]-5-[4-(2-thienyl)phenyl]-3-(trifluoromethyl)-1H-pyrazole] came in with a melting point of 75 to 76 °C.
The same measure for `Cc1cc(-n2nc(C(F)(F)F)cc2-c2ccc(-c3ccco3)cc2)ccc1S(N)(=O)=O` (as salt: hydrochloride) [Example 143, 4-[5-[4-(2-Furyl)phenyl]-3-(trifluoromethyl)-1H-pyrazol-1-yl]-2-methylbenzenesulfonamide]: 137.4 °C.
The same measure for `CS(=O)(=O)c1ccc(-n2nc(C(F)(F)F)cc2-c2ccc(-c3cscn3)c(F)c2)cc1F` [Example 105, 4-{4-[1-[3-Fluoro-4-(methylsulfonyl)phenyl]-3-(trifluoromethyl)-1H-pyrazol-5-yl]-2-fluorophenyl}-1,3-thiazole]: 156 to 158 °C; for `Cc1cc(-c2ccc(-c3ccoc3)cc2)n(-c2ccc(S(C)(=O)=O)cc2)c1` [Example 56, 2-[4-(3-Furyl)phenyl]-4-methyl-1-[4-(methylsulfonyl)phenyl]-1H-pyrrole]: 193 to 195 °C.
The compound `CS(=O)(=O)c1ccc(-n2nc(C(F)(F)F)cc2-c2ccc(-c3ccco3)cc2)cc1F` [Example 60, 1-[3-Fluoro-4-(methylsulfonyl)phenyl]-5-[4-(2-furyl)phenyl]-3-(trifluoromethyl)-1H-pyrazole] showed a melting point of 129 to 130 °C.
Turning to `COc1cc(-c2cc(C(F)(F)F)nn2-c2ccc(S(C)(=O)=O)cc2)ccc1-c1cscn1` (as salt: hydrochloride) [Example 120, 4-{2-Methoxy-4-[1-[4-(methylsulfonyl)phenyl]-3-(trifluoromethyl)-1H-pyrazol-5-yl]phenyl}-1,3-thiazole], the melting point lay within 164 to 166 °C.
Under `Cc1onc(-c2ccc(-c3cscn3)cc2)c1-c1ccc(S(N)(=O)=O)cc1` [Example 171, 4-{5-Methyl-3-[4-(1,3-thiazol-4-yl)phenyl]-4-isoxazolyl}benzenesulfonamide] stands 112 to 115 °C.

What is called melting point is the temperature, or range, at which the solid turns liquid.
